A short description of one data set: in vitro. Format: cell-based. As to conditions: African green monkey. As to the method: (§1) Tetravalent reverse transcriptase quantitative-PCR (RT-qPCR) assay The antiviral activity of the compounds of the invention was tested against DENV-1 strain TC974#666 (NCPV), DENV-2 strain 16681, DENV-3 strain H87 (NCPV) and DENV-4 strain H241 (NCPV) in a RT-qPCR assay. Therefore, Vero cells were infected with either DENV-1, or -2, or -3, or -4 in the presence or absence of test compounds. At day 3 post-infection, the cells were lysed and cell lysates were used to prepare cDNA of both a viral target (the 3′UTR of DENV; Table 2) and a cellular reference gene (β-actin, Table 2). Subsequently, a duplex real time PCR was performed on a Lightcycler480 instrument. The generated Cp value is inversely proportional to the amount of RNA expression of these targets. Inhibition of DENV replication by a test compound results in a shift of Cp's for the 3′UTR gene. On the other hand, if a test compound is toxic to the cells, a similar effect on β-actin expression will be observed. The comparative ΔΔCp method is used to calculate EC50, which is based on the relative gene expression of the target gene (3′UTR) normalized with the cellular housekeeping gene (β-actin). In addition, CC50 values are determined based on the Cp values acquired for the housekeeping gene β-actin.
(§2) The culture medium consisted of minimal essential medium supplemented with 2% of heat-inactivated fetal calf serum, 0.04% gentamycin (50mg/mL) and 2 mM of L-glutamine. Vero cells, obtained from ECACC, were suspended in culture medium and 75 μL/well was added in 96-well plates (10000 cells/well), which already contain the antiviral compounds. […] In addition, each plate contains wells which are assigned as virus controls (containing cells and virus in the absence of compound) and cell controls (containing cells in the absence of virus and compound). Once the cells were added in the plates, the plates were incubated in a fully humidified incubator (37° C., 5% CO2) until the next day. Dengue viruses serotype-1, 2, 3 and 4 were diluted in order to obtain a Cp of ˜22-24 in the assay. Therefore, 25 μL of virus suspension was added to all the wells containing test compound and to the wells assigned as virus control. In parallel, 25 μL of culture medium was added to the cell controls. Next, the plates were incubated for 3 days in a fully humidified incubator (37° C., 5% CO2). After 3 days, the supernatant was removed from the wells and the cells were washed twice with ice-cold PBS (˜100 μL). The cell pellets within the 96-well plates were stored at −80° C. for at least 1 day. Next, RNA was extracted using the Cells-to-CT™ lysis kit, according to the manufacturer's guideline (Life Technologies). The cell lysates can be stored at −80° C. or immediately used in the reverse transcription step.
(§3) Using the LightCycler software and an in-house LIMS system, dose response curves for each compound were calculated and the half maximal effective concentration (EC50) and the half maximal cytotoxic concentration (CC50) were determined (Tables 5-8).

The test system of the next data set is Vero cells. As to conditions: African green monkey.
The test system of a further data set is DENV-2 strain 16681. Nature of the data set: Tetravalent RT-qPCR assay, serotype 2. The class given is cell-based, Dengue virus. As to conditions: Dengue virus, DENV2, Vero, 72 h, RT-qPCR serotype 2 16681, Protocol A, Vero cells, day 3. As to the method:
as §1, §2
(§4) In preparation of the reverse transcription step, mix A (table 3A) was prepared and 7.57 μL/well was dispensed in a 96-well plate. After addition of 5 μL of the cell lysates, a five minute denaturation step at 75° C. was performed (table 3B). Afterwards, 7.43 μL of mix B was added (table 3C) and the reverse transcription step was initiated (table 3D) to generate cDNA.
(§5) Finally, a RT-qPCR mix was prepared, mix C (table 4A), and 22.02 μL/well was dispensed in 96-well LightCycler qPCR plates to which 3μL of cDNA was added and the qPCR was performed according to the conditions in table 4B on a LightCycler 480.
as §3
On the technique in general: In qPCR the cycle at which signal appears reflects the starting amount.

The subject of the next data set is DENV-4 strain H241. Nature of the data set: Tetravalent RT-qPCR assay, serotype 4. The class given is cell-based, Dengue virus. As to conditions: Dengue virus, DENV4, Vero, 72 h, RT-qPCR serotype 4 H241, Protocol A, Vero cells, day 3. As to the method:
as §1, §2, §4, §5, §3

A further data set relates to DENV-2 16681 strain. In words: DENV-2 antiviral assay (eGFP-labeled virus in Vero cells). The class given is cell-based, Dengue virus. The following applies: DENV-2 16681 eGFP, MOI 0.5, 3 days.
For a further data set, the system named is DENV-3 strain H87. In words: Tetravalent RT-qPCR assay, serotype 3. Format: cell-based, Dengue virus. As to conditions: Dengue virus, DENV3, Vero, 72 h, RT-qPCR serotype 3 H87, Protocol A, Vero cells, day 3. On the procedure:
as §1, §2, §4, §5, §3

In another data set the test system is DENV-1 strain TC974#666. In words: Tetravalent RT-qPCR assay, serotype 1. Format: cell-based, Dengue virus. The following applies: Dengue virus, DENV1, Vero, 72 h, RT-qPCR serotype 1 TC974#666, Protocol A, Vero cells, day 3. On the procedure: as §1, §2, §4, §5, §3
The next data set deals with DENV-2. As to conditions: analogous DENV-2 antiviral assay, reported activity; cited from earlier work.

Structures are written as SMILES. Where two headings read alike, the source gives them in different places.

Usually CC50 stands for the concentration at which the toxic effect on the cells reaches its halfway point. One may read the EC50 as the concentration needed to bring the measured effect to its halfway point.

In the data set “in vitro”, `COc1cc(NC(C(=O)N2CCc3cc(OC)c(C(F)(F)F)cc32)c2ccc(Cl)cc2)cc(OCCO)c1` (single isomer, unassigned) [Compound 7B, 2-(4-chlorophenyl)-2-((3-(2-hydroxyethoxy)-5-methoxyphenyl)amino)-1-(5-methoxy-6-(trifluoromethyl)indolin-1-yl)ethanone] showed a CC50 at 3 days of 4100 nM. In the data set with Vero cells, this compound yielded a CC50 of 12000 nM. Moreover, the EC50 stood at 0.96 nM in the data set with DENV-2 strain 16681; 120 nM in the data set with DENV-4 strain H241 (read-out: EC50); 1 nM in the data set with DENV-2 16681 strain; 30 nM with DENV-3 strain H87; 5.1 nM in the data set with DENV-1 strain TC974#666.

`COc1cc(NC(C(=O)N2CCc3cc(OC)c(OC(F)(F)F)cc32)c2ccc(Cl)cc2)cc(OCCO)c1` (single isomer, unassigned) [Compound 13A, 2-(4-chlorophenyl)-2-((3-(2-hydroxyethoxy)-5-methoxyphenyl)amino)-1-(5-methoxy-6-(trifluoromethoxy)indolin-1-yl)ethanone]: in the data set “in vitro”, the CC50 at 3 days was greater than 2500 nM. The midpoint of cytotoxicity in the data set on Vero cells, the CC50, lay at 12000 nM. Moreover, the EC50 worked out at 1.5 nM in the data set on DENV-2 strain 16681; 270 nM in the data set on DENV-4 strain H241; 3.5 nM in the data set on DENV-2 16681 strain; 43 nM in the data set on DENV-3 strain H87; 6.3 nM in the data set with DENV-1 strain TC974#666.

Consider `COc1cccc(NC(C(=O)N2CCc3ccccc32)c2ccccc2)c1` (stereo not shown) [(56) of WO-2013/045516], for which the EC50 with DENV-2 is 450 nM.

Take `CNC(=O)c1cccc(NC(C(=O)c2c[nH]c3ccccc23)c2ccccc2)c1` (stereo not shown) [(170) of WO-2013/045516]: the half-maximal effective concentration (EC50) with DENV-2 was 440 nM.

The record behind these values is patent US20200339511A1, “Substituted indoline derivatives as dengue viral replication inhibitors” (priority 2016, published 2020).
